pIC50: −log10 of the molar value.
Legend:
Format in all cases: cell-based
PAR2 (HT-29 cells) [1] = target: T1, PAR2 (HT-29 cells) (Homo sapiens, UniProt P55085); experiment: Ca FLIPR TETRA assay, ANTAGONIST mode, activator 3.1 U/mL trypsin; conditions: HT-29 cells, activator 3.1 U/mL trypsin; maximal antagonist concentration per Method (A: 0.1, 1 or 2 μM; B: 50 μM)
T1 construct: host or cells: HT-29
T1 sequence (P55085 26-397): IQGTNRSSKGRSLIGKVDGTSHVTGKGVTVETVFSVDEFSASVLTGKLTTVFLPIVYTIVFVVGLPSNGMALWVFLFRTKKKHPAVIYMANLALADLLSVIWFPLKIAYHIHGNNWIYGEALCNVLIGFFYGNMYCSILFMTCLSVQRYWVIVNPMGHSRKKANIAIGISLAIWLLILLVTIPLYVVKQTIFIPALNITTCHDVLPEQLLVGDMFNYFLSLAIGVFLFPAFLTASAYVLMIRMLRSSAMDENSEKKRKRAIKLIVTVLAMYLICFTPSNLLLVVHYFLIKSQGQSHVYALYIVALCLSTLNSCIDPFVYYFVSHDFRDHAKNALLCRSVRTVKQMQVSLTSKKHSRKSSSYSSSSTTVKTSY
Protocol: (§1) Protocol for Testing PAR2 Compounds in ANTAGONIST Mode Using the Ca FLIPR^TETRA Assay (384 Well).
(§2) 23000 HT-29 cells (ATCC# HTB-38) were plated in 384-well black, transparent-flat bottom plates and incubated in 25 uL of 1% FBS/McCoy's media ON at 37° C. under an atmosphere of 5% CO2. The following day, 25 uL FLIPR calcium 5 Molecular Devices assay reagent (Cat: R-8186) was added. Plates were incubated at 37° C. and r. t. for 45 min and 15 min, respectively. Compounds dilutions were prepared in 100% DMSO using a Biomek FX and diluted 20-fold in HBSS and then 5.5 uL was added directly to the cells by the FLIPR^TETRA (10× dilution) using FLIPR Tetra Pipette tips, black, non-sterile, 384 Molecular Devices (Cat: 9000-0764).
(§3) A first read was performed to determine whether the test compounds on their own can activate Ca^2+ responses. The cells were incubated with the compounds for 30 min at r. t. and then read in ANTAGONIST mode in the same plate by stimulating with 6.2 uL of a fixed concentration of the activator: final concentrations 8 μM SLIGKV, 1 U/mL Thrombin, 3.1 U/mL trypsin, or 0.6 μM UTP.

[2] = system: UTP-stimulated Ca2+ response in HT-29 cells; experiment: Ca FLIPR TETRA assay, ANTAGONIST mode, activator 0.6 μM UTP; conditions: HT-29 cells, activator 0.6 μM UTP
Protocol: as §1, §2, §3

[3] = system: Thrombin-stimulated Ca2+ response in HT-29 cells; experiment: Ca FLIPR TETRA assay, ANTAGONIST mode, activator 1 U/mL Thrombin; conditions: HT-29 cells, activator 1 U/mL Thrombin
Protocol: as §1, §2, §3

PAR2 (HT-29 cells) [4] = target: T1, PAR2 (HT-29 cells); experiment: Ca FLIPR TETRA assay, ANTAGONIST mode, activator 8 μM SLIGKV; conditions: HT-29 cells, activator 8 μM SLIGKV; maximal antagonist concentration per Method (A: 0.1, 1 or 2 μM; B: 50 μM)
Protocol: as §1, §2, §3

Row | Structure (SMILES) | pIC50 (PAR2 (HT-29 cells) [1]) | pIC50 ([2]; Homo sapiens) | pIC50 ([3]; Homo sapiens) | pIC50 (PAR2 (HT-29 cells) [4]) | pIC50 [2] | pIC50 [3]
1 | CC1(c2cc(-c3ccc(F)cc3)nc3cc(C(=O)N4CCN(C(=O)[C@H]5CCCO5)CC4(C)C)oc23)CC1 [Example I-30] | 7.85 | 4.89 | 4.70 | 7.80 | – | –
2 | CC1(c2cc(-c3ccc(F)cc3)nc3cc(C(=O)N4CCN(C(=O)C(O)C5CC5)CC4(C)C)oc23)CC1 (centres unmarked) [Example I-31] | 4.68 | < 4.30 | < 4.30 | 4.77 | – | –
3 | CC(C)[C@@H](O)C(=O)N1CCN(C(=O)c2cc3nc(-c4ccc(F)cc4)cc(C4(C)CC4)c3o2)C(C)(C)C1 [Example I-32] | 8.34 | 5.17 | 4.96 | 8.23 | – | –
4 | CC1(c2cc(-c3ccc(F)cc3)nc3cc(C(=O)N4CCN(C(=O)[C@H]5CCC(=O)O5)CC4(C)C)oc23)CC1 [Example I-33] | 7.19 | 5.24 | 5.44 | 7.03 | – | –
5 | CCCCC(O)C(=O)N1CCN(C(=O)c2cc3nc(-c4ccc(F)cc4)cc(C4(C)CC4)c3o2)C(C)(C)C1 (centres unmarked) [Example I-34] | 8.23 | 4.59 | < 4.60 | 8.34 | – | –
6 | CCC(C)(O)C(=O)N1CCN(C(=O)c2cc3nc(-c4ccc(F)cc4)cc(C4(C)CC4)c3o2)C(C)(C)C1 (centres unmarked) [Example I-35] | 7.31 | 4.96 | 4.85 | 7.47 | – | –
7 | CC(C)C[C@@H](O)C(=O)N1CCN(C(=O)c2cc3nc(-c4ccc(F)cc4)cc(C4(C)CC4)c3o2)C(C)(C)C1 [Example I-36] | 8.82 | < 4.59 | 4.51 | 9.01 | – | –
8 | COCCOCC(=O)N1CCN(C(=O)c2cc3nc(-c4ccc(F)cc4)cc(C4(C)CC4)c3o2)C(C)(C)C1 [Example I-37] | 7.17 | 4.77 | 4.68 | 7.24 | – | –
9 | CC(C)(C)CC(O)C(=O)N1CCN(C(=O)c2cc3nc(-c4ccc(F)cc4)cc(C4(C)CC4)c3o2)C(C)(C)C1 (centres unmarked) [Example I-38] | 8.51 | 4.41 | < 4.30 | 8.46 | – | –
10 | CC1(c2cc(-c3ccc(F)cc3)nc3cc(C(=O)N4CCN(C(=O)C(C)(O)C(F)(F)F)CC4(C)C)oc23)CC1 (centres unmarked) [Example I-39] | 7.70 | 4.64 | 4.68 | 7.85 | – | –
11 | CC1(c2cc(-c3ccc(F)cc3)nc3cc(C(=O)N4CCN(C(=O)[C@H](O)C5CCCCC5)CC4(C)C)oc23)CC1 [Example I-40] | 8.14 | 4.52 | 4.43 | 8.30 | – | –
12 | CC1(c2cc(-c3ccc(F)cc3)nc3cc(C(=O)N4CCN(C(=O)[C@H](O)Cc5ccccc5)CC4(C)C)oc23)CC1 [Example I-41] | 8.07 | < 4.30 | < 4.30 | 8.19 | – | –
13 | CC1(c2cc(-c3ccc(F)cc3)nc3cc(C(=O)N4CCN(C(=O)C5CCCCC5)CC4(C)C)oc23)CC1 [Example I-42] | 8.92 | < 4.30 | < 4.30 | 8.92 | – | –
14 | CC1(C(=O)N2CCN(C(=O)c3cc4nc(-c5ccc(F)cc5)cc(C5(C)CC5)c4o3)C(C)(C)C2)CCCCC1 [Example I-43] | 8.09 | < 4.30 | < 4.30 | 8.16 | – | –
15 | CCC(C)C(=O)N1CCN(C(=O)c2cc3nc(-c4ccc(F)cc4)cc(C4(C)CC4)c3o2)C(C)(C)C1 (centres unmarked) [Example I-44] | 8.49 | 4.44 | < 4.40 | 8.54 | – | –
16 | CC1(C(=O)N2CCN(C(=O)c3cc4nc(-c5ccc(F)cc5)cc(C5(C)CC5)c4o3)C(C)(C)C2)CC1 [Example I-45] | 8.39 | 5.33 | 4.70 | 8.40 | – | –
17 | CC(C)C(=O)N1CCN(C(=O)c2cc3nc(-c4ccc(F)cc4)cc(C4(C)CC4)c3o2)C(C)(C)C1 [Example I-46] | 8.15 | 5.28 | 5.39 | 8.10 | – | –
18 | CC[C@H](C(=O)N1CCN(C(=O)c2cc3nc(-c4ccc(F)cc4)cc(C4(C)CC4)c3o2)C(C)(C)C1)c1ccccc1 [Example I-47] | 7.11 | < 4.30 | < 4.30 | 7.54 | – | –

Row | Structure (SMILES) | pIC50 (PAR2 (HT-29 cells) [1]) | pIC50 ([2]; Homo sapiens) | pIC50 ([3]; Homo sapiens) | pIC50 (PAR2 (HT-29 cells) [4]) | pIC50 [2] | pIC50 [3]
19 | CC1(c2cc(-c3ccc(F)cc3)nc3cc(C(=O)N4CCN(C(=O)C5CCC5)CC4(C)C)oc23)CC1 [Example I-48] | 8.23 | 4.80 | 4.80 | 8.29 | – | –
20 | CC1(c2cc(-c3ccc(F)cc3)nc3cc(C(=O)N4CCN(C(=O)C5CC5)CC4(C)C)oc23)CC1 [Example I-49] | 7.92 | 4.74 | 4.82 | 8.23 | – | –
21 | CC1(c2cc(-c3ccc(F)cc3)nc3cc(C(=O)N4CCN(C(=O)C5C(C)(C)C5(C)C)CC4(C)C)oc23)CC1 [Example I-50] | 8.29 | < 4.30 | < 4.30 | 8.31 | – | –
22 | CC1(c2cc(-c3ccc(F)cc3)nc3cc(C(=O)N4CCN(C(=O)C5(C#N)CC5)CC4(C)C)oc23)CC1 [Example I-51] | 8.28 | < 4.30 | 4.62 | 8.24 | – | –
23 | CCC(C)(C)C(=O)N1CCN(C(=O)c2cc3nc(-c4ccc(F)cc4)cc(C4(C)CC4)c3o2)C(C)(C)C1 [Example I-52] | 8.22 | < 4.30 | < 4.30 | 8.38 | – | –
24 | CC1(c2cc(-c3ccc(F)cc3)nc3cc(C(=O)N4CCN(C(=O)C5(c6ccc(Cl)cc6)CC5)CC4(C)C)oc23)CC1 [Example I-53] | 7.13 | < 4.30 | < 4.30 | 7.28 | – | –
25 | CC1(c2cc(-c3ccc(F)cc3)nc3cc(C(=O)N4CCN(C(=O)C5CCOCC5)CC4(C)C)oc23)CC1 [Example I-54] | 8.20 | 5.10 | 5.02 | 8.35 | – | –
26 | CC1(c2cc(-c3ccc(F)cc3)nc3cc(C(=O)N4CCN(C(=O)C5(C(F)(F)F)CC5)CC4(C)C)oc23)CC1 [Example I-55] | 8.34 | < 4.48 | 4.54 | 8.55 | – | –
27 | CC1(c2cc(-c3ccc(F)cc3)nc3cc(C(=O)N4CCN(C(=O)C5(O)CCC5)CC4(C)C)oc23)CC1 [Example I-56] | 7.51 | 5.28 | 5.05 | 7.80 | – | –
28 | CC1(c2cc(-c3ccc(F)cc3)nc3cc(C(=O)N4CCN(C(=O)C5(O)CCOCC5)CC4(C)C)oc23)CC1 [Example I-57] | 7.11 | 5.07 | 5.17 | 7.28 | – | –
29 | CC1(c2cc(-c3ccc(F)cc3)nc3cc(C(=O)N4CCN(C(=O)C5CC(O)(C(F)(F)F)C5)CC4(C)C)oc23)CC1 (centres unmarked) [Example I-58] | 9.19 | 4.52 | 4.72 | 9.51 | – | –
30 | CC[C@H](O)C(=O)N1CCN(C(=O)c2cc3nc(-c4ccc(F)cc4)cc(C4(C)CC4)c3o2)C(C)(C)C1 [Example I-59] | 7.31 | 4.82 | 4.82 | 7.68 | – | –
31 | CC1(c2cc(-c3ccc(F)cc3)nc3cc(C(=O)N4CCN(C(=O)C5CCOC5)CC4(C)C)oc23)CC1 (centres unmarked) [Example I-60] | 7.17 | – | – | 7.32 | 4.89 | 4.85
32 | CC[C@@H](O)C(=O)N1CCN(C(=O)c2cc3nc(-c4ccc(F)cc4)cc(C(C)C)c3o2)C(C)(C)C1 [Example I-61] | 7.96 | 4.89 | 4.77 | 8.32 | – | –
33 | CC(C)c1cc(-c2ccc(F)cc2)nc2cc(C(=O)N3CCN(C(=O)CC(C)(C)O)CC3(C)C)oc12 [Example I-62] | 7.41 | 5.28 | 5.33 | 7.40 | – | –
34 | CO[C@H](C)C(=O)N1CCN(C(=O)c2cc3nc(-c4ccc(F)cc4)cc(C(C)C)c3o2)C(C)(C)C1 [Example I-63] | 6.96 | 4.72 | 4.74 | 7.21 | – | –
35 | CC(C)c1cc(-c2ccc(F)cc2)nc2cc(C(=O)N3CCN(C(=O)C4CCCCO4)CC3(C)C)oc12 (centres unmarked) [Example I-64] | 8.22 | 4.68 | 4.52 | 8.35 | – | –
